Test results from patent publication US20240059658A1 (Emory University, priority 2019, published 2024).

system: EU-1; experiment: WST cytotoxicity assay, cancer cell EU-1; assay type: cell-based, human; settings: Homo sapiens, EU-1, EU-1; no other cell line named in the cell; read-out: Cancer cell (EU-1) cytotoxicity IC50
Protocol: This study used two ALL cell lines (EU-1 and EU-3) and three NB cell lines (NB-1643, SHEP1 and LA1-55N). All 5 cancer cell lines were established from pediatric ALL or NB patients and were well-characterized for their expression of MDM2 and p53-status, as reported previously. All cell lines were grown in standard culture medium (RPMI 1640 containing 10% FBS, 2 mmol/L L-glutamine, 50 U penicillin and 50 μg/mL streptomycin) at 37° C. in a humidified atmosphere containing 5% CO2.
The cytotoxic effect of MX 69 and MX69 analogs on cancer cells was determined using the water-soluble tetrazolium salt (WST) assay. Briefly, cells cultured in 96-well microtiter plates were treated with different concentrations of AQ-101 for a 20-h period. WST (25 μg/well) was then added and incubation continued for an additional 4 h, after which optical density (OD) was read with a microplate reader (test wavelength of 450 nm; reference wavelength of 620 nm).

SMILES	IC50 [µM]
CC(=O)c1ccc(NS(=O)(=O)c2ccc3c(c2)[C@H]2OCC[C@H]2C(c2ccc(C(C)=O)cc2)N3)cc1 (stereo partly shown) [Compound 69L111]	1.37
COC(=O)c1ccc(C2Nc3ccc(S(=O)(=O)Nc4ccc(C)c(C)c4)cc3C3NCC[C@@H]23)cc1 (stereo partly shown) [Compound 69L34]	3.44
Cc1ccc(NS(=O)(=O)c2ccc3c(c2)C(=O)CC(c2cccc(C(=O)N(C)C)c2)N3)cc1C (stereo not shown) [Compound 69L158]	0.63
CC(=O)c1cccc(NS(=O)(=O)c2ccc3c(c2)[C@H]2OCC[C@H]2C(c2ccc(C(C)C)cc2)N3)c1 (stereo partly shown) [Compound 69L115]	0.56
Cc1ccc(NS(=O)(=O)c2ccc3c(c2)[C@H]2OCC[C@H]2C(c2ccc(-n4ccccc4=O)cc2)N3)cc1C (stereo partly shown) [Compound 69L15]	17.9
O=S(=O)(Nc1ccc(Br)c(Br)c1)c1ccc2c(c1)[C@H]1OCC[C@H]1[C@H](C1CCCCC1)N2 [Compound 69L68]	5.1
CC(C)C(=O)c1ccc(C2Nc3ccc(S(=O)(=O)Nc4ccc(Cl)c(Cl)c4)cc3[C@H]3OCC[C@@H]23)cc1 (stereo partly shown) [Compound 69L76]	5.59
Cc1ccc(N(C)S(=O)(=O)c2ccc3c(c2)[C@H]2OCC[C@H]2[C@@H](c2ccc(C(=O)C(C)C)cc2)N3)cc1C (stereo in doubt) [Compound 69L132, N-(3,4-dimethylphenyl)-4-(4-isobutyrylphenyl)-N-methyl-2,3,3a,4,5,9b-hexahydrofuro[3,2-c]quinoline-8-sulfonamide]	1.57
Cc1ccc(NS(=O)(=O)c2ccc3c(c2)[C@H]2NCC[C@H]2[C@H](c2ccc(C(=O)C(C)C)cc2)N3)cc1C [Compound 69L82]	29.7
Cc1ccc(NS(=O)(=O)c2ccc3c(c2)C2NCC[C@H]2[C@H](c2ccc(S(C)(=O)=O)cc2)N3)cc1C (stereo partly shown) [Compound 69L44]	44.9
Cc1ccc(NS(=O)(=O)c2ccc3c(c2)C2OCC[C@H]2[C@@H](c2c[nH]c4ccccc24)N3)cc1C (stereo partly shown) [Compound 69L36]	9.2
COC(=O)c1ccc([C@H]2Nc3cc(Cl)c(S(=O)(=O)Nc4ccc(C)c(C)c4)cc3[C@H]3OCC[C@@H]23)cc1 [Compound 69L25]	> 50
CC(=O)c1cccc(NS(=O)(=O)c2ccc3c(c2)C2NCC[C@H]2[C@@H](c2ccc(C(=O)C(C)C)cc2)N3)c1 (stereo partly drawn) [69L130 trans]	> 10
CCC(=O)c1cccc(NS(=O)(=O)c2ccc3c(c2)C2OCC[C@H]2C(c2ccc4c(c2)CCO4)N3)c1 (stereo in doubt) [Compound 69L127, 4-(2,3-dihydrobenzofuran-5-yl)-N-(3-propionylphenyl)-2,3,3a,4,5,9b-hexahydrofuro[3,2-c]quinoline-8-sulfonamide]	4.8
CC(C)C(=O)c1ccc(C2Nc3ccc(S(=O)(=O)Nc4ccc(Br)c(Br)c4)cc3[C@H]3OCC[C@@H]23)cc1 (stereo partly shown) [Compound 69L74]	5.23
CCOC1C[C@@H](c2ccc(C(C)=O)cc2)Nc2ccc(S(=O)(=O)Nc3ccc(C)c(C)c3)cc21 (stereo partly shown) [Compound 69L46]	6.5
Cc1ccc(NS(=O)(=O)c2ccc3c(c2)C2OCC[C@H]2[C@@H](c2ccc(C(=O)C(C)C)cc2)N3)cc1C (stereo partly shown) [Compound 69L52b]	1.4 to 1.6
CC(=O)c1ccc([C@H]2Nc3ccc(S(=O)(=O)Nc4ccc(C)c(C)c4)cc3C3NCC[C@H]32)cc1 (stereo partly shown) [Compound 69L49]	4.6
CC(C)C(=O)c1ccc(C2Nc3ccc(S(=O)(=O)Nc4ccc5c(c4)OCO5)cc3[C@H]3OCC[C@@H]23)cc1 (stereo partly shown) [Compound 69L142]	> 5
CC(C)c1cccc(NS(=O)(=O)c2ccc3c(c2)C(=O)CC(c2cccc(C(C)C)c2)N3)c1 (stereo not shown) [Compound 69L137]	5

SMILES	IC50 [µM]
CC(C)C(=O)c1cccc(C2CC(=O)c3cc(S(=O)(=O)Nc4ccc5c(c4)CCO5)ccc3N2)c1 (stereo not shown) [Compound 69L140]	0.23
CC(C)C(=O)c1ccc([C@@H]2Nc3ccc(S(=O)(=O)Nc4ccc(C(F)(F)F)c(C(F)(F)F)c4)cc3C3OCC[C@H]32)cc1 (stereo in doubt) [Compound 69L92, N-(3,4-bis(trifluoromethyl)phenyl)-4-(4-isobutyrylphenyl)-2,3,3a,4,5,9b-hexahydrofuro[3,2-c]quinoline-8-sulfonamide]	> 10
COC(=O)c1ccc([C@H]2Nc3ccc(S(=O)(=O)Nc4ccc(C)c(C)c4)cc3C3OCCC32)cc1 (stereo partly shown) [Compound 69L12]	3 to 3.9
Cc1ccc(NS(=O)(=O)c2ccc3c(c2)[C@H]2c4ccccc4C[C@H]2[C@H](c2ccc(Br)cc2)N3)cc1C [Compound 69L7]	> 50
COC(=O)c1ccc([C@@H]2Nc3ccc(S(=O)(=O)Nc4ccc(C)c(C)c4)cc3[C@@H]3OCC[C@H]23)cc1 [Compound 69L29]	2 to 2.7
Cc1ccc(NS(=O)(=O)c2ccc3c(c2)C2NCC[C@H]2[C@@H](c2ccc(S(C)(=O)=O)cc2)N3)cc1C (stereo partly shown) [Compound 69L43]	12
Cc1cc(NS(=O)(=O)c2ccc3c(c2)C2OCC[C@H]2C(C2CCCCC2)N3)ccc1C(F)(F)F (stereo partly shown) [Compound 69L90]	3.26
CN(C)c1cccc(NS(=O)(=O)c2ccc3c(c2)[C@H]2OCC[C@H]2[C@H](C2CCCCC2)N3)c1 [Compound 69L143]	3.96
Cc1ccc(NS(=O)(=O)c2ccc3c(c2)[C@H]2C=CC[C@H]2[C@H](c2ccc(S(C)(=O)=O)cc2)N3)cc1C [Compound 69L21]	6.18
CC(=O)c1ccc([C@@H]2CC(O)c3cc(S(=O)(=O)Nc4ccc(C)c(C)c4)ccc3N2)cc1 (stereo partly shown) [Compound 69L47]	2.1
COc1cc(NS(=O)(=O)c2ccc3c(c2)C(=O)CC(c2cccc(C(=O)C(C)C)c2)N3)ccc1C (stereo not shown) [Compound 69L160, 2-(3-isobutyrylphenyl)-N-(3-methoxy-4-methylphenyl)-4-oxo-1,2,3,4-tetrahydroquinoline-6-sulfonamide]	0.54
Cc1cc(NS(=O)(=O)c2ccc3c(c2)[C@H]2OCC[C@H]2C(c2ccc(C(=O)C(C)C)cc2)N3)ccc1Cl (stereo partly shown) [Compound 69L77]	6.29
CCC(=O)c1cccc(NS(=O)(=O)c2ccc3c(c2)C(=O)CC(c2ccc4c(c2)CCO4)N3)c1 (stereo not shown) [Compound 69L129]	0.65
CC(=O)c1ccc(C2Nc3ccc(S(=O)(=O)Nc4cccc(C(C)=O)c4)cc3[C@H]3OCC[C@@H]23)cc1 (stereo partly shown) [Compound 69L110]	0.27
CC(=O)N1CCC([C@@H]2Nc3ccc(S(=O)(=O)Nc4ccc(C)c(C)c4)cc3C3OCC[C@H]32)CC1 (stereo partly shown) [Compound 69L57, 4-(1-acetylpiperidin-4-yl)-N-(3,4-dimethylphenyl)-2,3,3a,4,5,9b-hexahydrofuran[3,2-c]quinolone-8-sulfonamine]	10.8
Cc1ccc(N(C)S(=O)(=O)c2ccc3c(c2)[C@H]2OCC[C@H]2C(c2ccc(C(=O)C(C)C)cc2)N3C)cc1C (stereo in doubt) [Compound 69L131, N-(3,4-dimethylphenyl)-4-(4-isobutyrylphenyl)-N,5-dimethyl-2,3,3a,4,5,9b-hexahydrofuro[3,2-c]quinoline-8-sulfonamide]	1.16
CC(=O)c1cccc(C2CC(=O)c3cc(S(=O)(=O)Nc4ccc5c(c4)OCO5)ccc3N2)c1 (stereo not shown) [Compound 69L147]	1.16
Cc1ccc(NS(=O)(=O)c2ccc3c(c2)[C@H]2OCC[C@H]2C(c2ccc(C(=O)C4CC4)cc2)N3)cc1C (stereo partly shown) [Compound 69L67]	5.18
Cc1ccc(NS(=O)(=O)c2ccc3c(c2)C(O)C[C@H](c2ccc(C(=O)O)cc2)N3)cc1C (stereo partly shown) [Compound 69L40]	> 50
CC(=O)c1cccc(NS(=O)(=O)c2ccc3c(c2)[C@H]2OCC[C@H]2[C@H](C2CCCCC2)N3)c1 [Compound 69L144]	1.53
